≈ marks a conversion by molar mass, not a printed value. Where two headings read alike, the source gives them in different places.
Experiments:
Type in all cases: cell-based
P. avidum ATCC 25577 [1] = experiment: MIC assay; conditions: Cutibacterium avidum, ATCC25577; P. avidum ATCC 25577 (resistance None)
Protocol: (§1) The Propionibacterium spp organisms were cultured and maintained on Wilkins-Chalgren Anaerobe Medium (agar and broth) at pH 6.0; cultures were incubated anaerobically at 37° C. for 72 hours.
(§2) This is a standard international method for quantitatively assessing the antimicrobial activity of a compound in a liquid medium. The method used a 96-well microtitre plate, capable of holding about 200 μl of liquid per well. […] The culture media were as described above for the relevant test organisms.
(§3) The wells were inoculated with a liquid suspension of freshly grown micro-organism and incubated under the conditions described above. After incubation, the microtitre plate was examined visually (with the aid of a light box) for cell pellets in and/or opaque wells, which would indicate microbial growth. The MIC value was recorded as the lowest concentration of test compound required to inhibit microbial growth, ie, the lowest concentration for which the liquid in the well remained clear.
(§4) The assays were conducted in duplicate and included both negative (culture medium only) and positive (culture medium, diluting solvent and inoculum) controls.

S. aureus ATCC 12607 = experiment: MIC assay; conditions: Staphylococcus aureus, ATCC12607
Protocol: (§5) The staphylococci and enterococci were cultured and maintained on Mueller-Hinton Medium (agar and broth) at pH 7.2; they were incubated aerobically at 37° C. for 24 hours.
as §2, §3, §4

[2] = system: Staphylococcus capitis ATCC 27840; experiment: MIC assay; conditions: ATCC27840
Protocol: as §5, §2, §3, §4

[3] = system: Staphylococcus aureus ATCC 12600; experiment: MIC assay; conditions: ATCC12600
Protocol: as §5, §2, §3, §4

[4] = system: Staphylococcus hominis ATCC 27844; experiment: MIC assay; conditions: ATCC27844
Protocol: as §5, §2, §3, §4

S. aureus ATCC 25923 = experiment: MIC assay; conditions: Staphylococcus aureus, ATCC25923
Protocol: as §5, §2, §3, §4

[5] = system: S. aureus CPHL GISA HO41340156; experiment: MIC assay; conditions: Staphylococcus aureus
Protocol: as §5, §2, §3, §4

S. aureus ATCC 12604 = experiment: MIC assay; conditions: Staphylococcus aureus, ATCC12604
Protocol: as §5, §2, §3, §4

[6] = system: Staphylococcus simulans ATCC 27848; experiment: MIC assay; conditions: ATCC27848
Protocol: as §5, §2, §3, §4

[7] = system: Staphylococcus cohnii ATCC 29974; experiment: MIC assay; conditions: ATCC29974
Protocol: as §5, §2, §3, §4

[8] = system: Staphylococcus auricularis ATCC 33753; experiment: MIC assay; conditions: ATCC33753
Protocol: as §5, §2, §3, §4

S. aureus ATCC 12601 = experiment: MIC assay; conditions: Staphylococcus aureus, ATCC12601
Protocol: as §5, §2, §3, §4

S. aureus CPHL VISA Mu50 = experiment: MIC assay; conditions: Staphylococcus aureus
Protocol: as §5, §2, §3, §4

[9] = system: S. epidermidis (NCTC 11047); experiment: MIC assay; conditions: Staphylococcus epidermidis, NCTC11047
Protocol: as §5, §2, §3, §4

[10] = system: Staphylococcus haemolyticus ATCC 29970; experiment: MIC assay; conditions: ATCC29970
Protocol: as §5, §2, §3, §4

S. aureus CPHL VISA Mu3 = experiment: MIC assay; conditions: Staphylococcus aureus
Protocol: as §5, §2, §3, §4

S. aureus ATCC 12606 = experiment: MIC assay; conditions: Staphylococcus aureus, ATCC12606
Protocol: as §5, §2, §3, §4

[11] = system: Staphylococcus warneri ATCC 27836; experiment: MIC assay; conditions: ATCC27836
Protocol: as §5, §2, §3, §4

[12] = system: S. saprophyticus NCTC 7292; experiment: MIC assay; conditions: Staphylococcus saprophyticus, NCTC7292
Protocol: as §5, §2, §3, §4

S. aureus ATCC 12605 = experiment: MIC assay; conditions: Staphylococcus aureus, ATCC12605
Protocol: as §5, §2, §3, §4

S. aureus CPHL EMRSA 17 = experiment: MIC assay; conditions: Staphylococcus aureus
Protocol: as §5, §2, §3, §4

[13] = system: Staphylococcus xylosus ATCC 29971; experiment: MIC assay; conditions: ATCC29971
Protocol: as §5, §2, §3, §4

S. aureus ATCC 12600-U = experiment: MIC assay; conditions: Staphylococcus aureus, ATCC12600
Protocol: as §5, §2, §3, §4

S. aureus ATCC 12602 = experiment: MIC assay; conditions: Staphylococcus aureus, ATCC12602
Protocol: as §5, §2, §3, §4

P. granulosum PRP-043 = experiment: Disc diffusion assay (DDA); conditions: zone diameter, 200 μg per disc
Protocol: as §1
(§6) A sterile paper disc was impregnated with a sample of the test compound and a minimum of 30 minutes allowed for the solvents to evaporate as far as possible. The disc was then placed on an agar plate onto which the test micro-organism had been inoculated. The plate was then incubated under the conditions described above, following which it was examined visually for signs of bacterial growth. If the test compound had antimicrobial activity, a circular zone of no growth would be obtained around the disc. The diameter of this zone of “inhibition” was measured using a ProtoCOL™ automated zone sizer (Synbiosis, Cambridge, UK). In general, a greater diameter and/or area of the zone of inhibition indicates a greater antimicrobial activity in the relevant test compound, although other factors such as test compound mobility through the agar gel may also influence the result.
(§7) The area of the zone of inhibition was calculated from the measured zone diameter (D) using the formula π(D/2)^2.

P. granulosum PRP-055 = experiment: Disc diffusion assay (DDA); conditions: zone diameter, 200 μg per disc
Protocol: as §1, §6, §7

P. granulosum PRP-005 = experiment: Disc diffusion assay (DDA); conditions: zone diameter, 200 μg per disc
Protocol: as §1, §6, §7

P. granulosum PRP-044 = experiment: Disc diffusion assay (DDA); conditions: zone diameter, 200 μg per disc
Protocol: as §1, §6, §7

P. granulosum NCTC 11865 = experiment: Disc diffusion assay (DDA); conditions: zone diameter, 200 μg per disc
Protocol: as §1, §6, §7

P. avidum ATCC 25577 [14] = experiment: Disc diffusion assay (DDA); conditions: zone diameter, 200 μg per disc
Protocol: as §1, §6, §7

| Compound | MIC (P. avidum ATCC 25577 [1]) [µg/mL] | MIC [3] [µg/mL] | MIC [5] [µg/mL] | MIC (S. aureus ATCC 12604) [µg/mL] | MIC [7] [µg/mL] | MIC (S. aureus CPHL VISA Mu50) [µg/mL] | MIC (S. aureus CPHL VISA Mu3) [µg/mL] | MIC (S. aureus CPHL EMRSA 17) [µg/mL] | MIC (S. aureus ATCC 12602) [µg/mL] | DDA (P. granulosum PRP-043) | DDA (P. granulosum PRP-055) | DDA (P. granulosum PRP-005) | DDA (P. granulosum PRP-044) | DDA (P. granulosum NCTC 11865) | DDA (P. avidum ATCC 25577 [14]) | further results |
| --- | --- | --- | --- | --- | --- | --- | --- | --- | --- | --- | --- | --- | --- | --- | --- | --- |
| O=C(OOC(=O)c1ccccc1)c1ccccc1 [benzoyl peroxide] | 31.2 (≈ 129 µM) | 125 (≈ 516 µM) | 125 (≈ 516 µM) | 125 (≈ 516 µM) | 62.5 (≈ 258 µM) | 125 (≈ 516 µM) | 125 (≈ 516 µM) | 125 (≈ 516 µM) | 125 (≈ 516 µM) | 22.48 (±1.19) mm | 21.51 (±0.47) mm | 22.95 (±0.64) mm | 29.31 (±0.54) mm | 24.19 (±0.94) mm | 25.83 (±0.95) mm | MIC (S. aureus ATCC 12607; S. aureus ATCC 12607, read-out: MIC): 250 µg/mL (≈ 1030 µM); MIC ([2]; Staphylococcus capitis ATCC 27840, read-out: MIC): 250 µg/mL (≈ 1030 µM); MIC ([4]; Staphylococcus hominis ATCC 27844, read-out: MIC): 250 µg/mL (≈ 1030 µM); MIC (S. aureus ATCC 25923; S. aureus ATCC 25923, read-out: MIC): 250 µg/mL (≈ 1030 µM); MIC ([6]; Staphylococcus simulans ATCC 27848, read-out: MIC): > 250 µg/mL; MIC ([8]; Staphylococcus auricularis): 15.6 µg/mL (≈ 64.4 µM); MIC (S. aureus ATCC 12601; S. aureus ATCC 12601, read-out: MIC): 250 µg/mL (≈ 1030 µM); MIC ([9]; S. epidermidis NCTC 11047, read-out: MIC): 250 µg/mL (≈ 1030 µM); MIC ([10]; Staphylococcus haemolyticus ATCC 29970, read-out: MIC): 250 µg/mL (≈ 1030 µM); MIC (S. aureus ATCC 12606; S. aureus ATCC 12606, read-out: MIC): 250 µg/mL (≈ 1030 µM); MIC ([11]; Staphylococcus warneri ATCC 27836, read-out: MIC): > 250 µg/mL; MIC ([12]; S. saprophyticus NCTC 7292, read-out: MIC): 250 µg/mL (≈ 1030 µM); MIC (S. aureus ATCC 12605; S. aureus ATCC 12605, read-out: MIC): 250 µg/mL (≈ 1030 µM); MIC ([13]; Staphylococcus xylosus ATCC 29971, read-out: MIC): 250 µg/mL (≈ 1030 µM); MIC (S. aureus ATCC 12600-U; S. aureus ATCC 12600-U, read-out: MIC): 250 µg/mL (≈ 1030 µM) |
| CC(C)(C)c1cc(O)ccc1O [TBHQ, t-butyl hydroquinone] | 3.9 (≈ 23.5 µM) | 3.9 (≈ 23.5 µM) | 7.8 (≈ 46.9 µM) | 7.8 (≈ 46.9 µM) | 3.9 (≈ 23.5 µM) | 3.9 (≈ 23.5 µM) | 3.9 (≈ 23.5 µM) | 1.95 (≈ 11.7 µM) | 3.9 (≈ 23.5 µM) | 10.56 (±0.48) mm | 13.07 (±0.78) mm | 0.00 (±0.00) mm | 10.70 (±0.65) mm | 11.00 (±0.00) mm | 9.16 (±0.48) mm | MIC (S. aureus ATCC 12607): 3.9 µg/mL (≈ 23.5 µM); MIC ([2]; Staphylococcus capitis): 1.95 to 3.9 µg/mL (≈ 11.7 to 23.5 µM); MIC ([4]; Staphylococcus hominis): 1.95 µg/mL (≈ 11.7 µM); MIC (S. aureus ATCC 25923): 7.8 µg/mL (≈ 46.9 µM); MIC ([6]; Staphylococcus simulans): 7.8 µg/mL (≈ 46.9 µM); MIC ([8]; Staphylococcus auricularis ATCC 33753, read-out: MIC): 0.98 µg/mL (≈ 5.9 µM); MIC (S. aureus ATCC 12601): 7.8 µg/mL (≈ 46.9 µM); MIC [9]: 3.9 µg/mL (≈ 23.5 µM); MIC ([10]; Staphylococcus haemolyticus): 3.9 µg/mL (≈ 23.5 µM); MIC (S. aureus ATCC 12606): 7.8 µg/mL (≈ 46.9 µM); MIC ([11]; Staphylococcus warneri): 3.9 µg/mL (≈ 23.5 µM); MIC [12]: 3.9 µg/mL (≈ 23.5 µM); MIC (S. aureus ATCC 12605): 3.9 µg/mL (≈ 23.5 µM); MIC ([13]; Staphylococcus xylosus): 7.8 µg/mL (≈ 46.9 µM); MIC (S. aureus ATCC 12600-U): 3.9 µg/mL (≈ 23.5 µM) |
